Laboratory results as given in patent US7161064B2, “Method for producing stably transformed duckweed using microprojectile bombardment” (North Carolina State University, priority 1997, dated 2007).

Assays:
Lemna gibba G3 [1] = test: GUS expression in fronds after co-cultivation with Agrobacterium tumefaciens AT656 (histochemical staining); format: cell-based
Experimental: Duckweed fronds were grown on liquid Schenk and Hildebrandt medium containing 1% sucrose with and without 10 μM indoleacetic acid (IAA), a concentration sufficient to increase proliferation rate. Fronds were grown in 25 ml aliquots of medium in 125 ml flasks, at 23° C. under a 16 hr light/8 hr dark photoperiod with light intensity of approximately 40 μmol/m^2·sec. For co-cultivation, 500 ml of Schenk and Hildebrandt medium containing 1% sucrose, 0.8% agar, 20 mg/L acetosyringone, and with and without 10 μM indoleacetic acid was prepared, pH adjusted to 5.6, autoclaved at 121° C. for 30 minutes, and cooled. Filter-sterilized solutions of acetosyringone, and acetosyringone and indoleacetic acid were added to the cooled medium, to the final, appropriate concentrations. Twenty, 100 mm×15 mm petri dishes were poured from the cooled medium.
A randomized block, experimental design with 2 bacterial strain treatments×2 frond growth media, with 5 replications, with one petri dish per replication, and 20 fronds per petri dish was used. For inoculation, bacteria of each strain were separately resuspended as described in Example 21. For inoculation, individual fronds were separated from clumps, each turned abaxial side up and wounded with a sterile scalpel in the meristematic regions, then transferred to bacterial suspensions of either AT656 or EHA101pJR1, and incubated for 10–15 minutes. For co-cultivation, fronds were transferred to solid Schenk and Hildebrandt medium with 1% sucrose, 0.8% agar and 100 μM acetosyringone with and without 10 μM indoleacetic acid as described above, abaxial side down.
The fronds were co-cultivated for 4 days at 23° C. under a 16 hr light/8 hr dark photoperiod with light intensity of approximately 40 μmol/m^2·sec. The fronds from two plates from each of the four treatments were stained for GUS expression.
Lemna gibba G3 fronds were grown for two weeks on liquid. Schenk and Hildebrandt medium containing 1% sucrose and with or without 10 μM indoleacetic acid in 25 ml aliquots in 125 ml flasks, at 23° C. under a 16 hr light/8 hr dark photoperiod with light intensity of approximately 40 μmol/m^2·sec prior to experimentation. For co-cultivation, 900 ml of Schenk and Hildebrandt medium containing 1% sucrose, 0.8% agar, with and without 10 μM indoleacetic acid, and 20 mg/L acetosyringone was prepared, the pH was adjusted to 5.6, the medium autoclaved at 121° C. for 30 minutes, and cooled. Filter-sterilized solutions of acetosyringone and indoleacetic acid were added to the appropriate, final medium concentrations. Thirty-six, 100 mm×15 mm petri dishes were poured from the cooled medium. Three bacterial media: 1) AB minimal containing 1.6% agar (AB), Difco potato dextrose medium with 1.6% agar (PDA), and mannitol glutamine (Roberts and Kerr, Physiol. […]

Lemna gibba G3 [2] = test: Callus induction from Lemna gibba G3 fronds on solid medium with plant growth regulators; format: cell-based
Experimental: Duckweed fronds were grown in liquid Hoagland's medium (Hoagland and Snyder, Proc. Amer. Soc. Hort. Sci. 30, 288 (1933)) containing 3% sucrose for two weeks at 23° C. under a 16 hr light/8 hr dark photoperiod with light intensity of approximately 40 μmol/m^2·sec prior to experimentation. For callus induction, eighteen, 100 ml portions of Murashige and Skoog basal medium (Murashige and Skoog, Physiol. Plant. 15, 473 (1962)) containing 3% sucrose, 0.15% Gelrite and 0.4% Difco Bacto-agar were prepared with 2,4-D concentrations of 10, 20 and 50 μM and BA concentrations of 0, 0.01, 0.1, 1.0, 2.0, and 10.0 μM. All media were pH adjusted to 5.8, autoclaved at 121° C. for 20 minutes, cooled, and each 100 ml was poured into 4, 100 mm×15 mm petri dishes.
(§1) A three 2,4-D concentrations×six BA concentrations, full-factorial experimental design (18 treatments in total) with four replications, with one petri dish per replication and 5 fronds per petri dish was used. For callus induction, 5 individual duckweed fronds were placed abaxial side down on each plate of medium. The 72 plates were incubated at 23° C., for 27 days under a 16 hr light/8 hr dark photoperiod with light intensity of approximately 40 μmol/m^2·sec. After 27 days the duckweed tissue was transferred to fresh media of the same type and incubation was continued another 35 days under the same temperature and light culturing conditions.
Duckweed fronds were grown in liquid Hoagland's medium containing 3% sucrose for two weeks at 23° C. under a 16 hr light/8 hr dark photoperiod with light intensity of approximately 40 μmol/m^2·sec. prior to experimentation. For callus induction, forty 100 ml portions of Murashige and Skoog medium with 3% sucrose, 0.15% Gelrite, and 0.4% Difco Bacto-agar were prepared with dicamba concentrations of 10, 20, 30, 40, 50, 60, 80, 100 μM and BA concentrations of 0.01, 0.05, 0.1, 0.5, and 1.0 μM. All media were pH adjusted to 5.8, autoclaved at 121° C. for 20 minutes, cooled, and each 100 ml was poured into 4, 100 mm×15 mm petri dishes.
as §1, with “An eight dicamba concentrations×five BA” for “A three 2,4-D concentrations×six BA”, “design (40” for “design (18”, “The” for “The 72”, “After 28” for “After 27”, “another 45” for “another 35”
Duckweed fronds were grown in liquid Schenk and Hildebrandt medium containing 1% sucrose for two weeks at 23° C. under a 16 hr light/8 hr dark photoperiod with light intensity of approximately 40 μmol/m^2·sec prior to experimentation. For callus induction, three basal media were tested: Murashige and Skoog, Schenk and Hildebrandt, and N6. Benzyladenine was used as the cytokinin at a concentration of 1 μM. The auxin concentrations varied with auxin type. For the relatively strong auxins, 2,4-D and dicamba, concentrations were 0, 1, 5, 10 and 20 μM. For weak auxins, NAA and IBA, the concentrations were 0, 5, 10, 20 and 50 μM. For each medium dose-response experiment, 2 liters of basal medium were prepared with BA and the pH adjusted to 5.8. The volume was aliquoted as 20, 100 ml portions. To each of these portions, the appropriate amount of auxin was added and the medium was adjusted to 0.15% Gelrite, and 0.4% Difco Bacto-agar. The media were autoclaved for 30 minutes at 121° C., cooled and 4, 100 mm×15 mm petri dishes were poured from each 100 ml portion.
A 3 media×4 auxin×5 concentration combinations, 60 treatment, randomized dose-response experimental design was used. The design was replicated two times, with one petri dish per replication and 5 fronds per petri dish.

[3] = test system: L. minor strains 8744 and 8627; test: Callus induction from Lemna minor fronds, auxin and cytokinin type and concentration; format: cell-based; settings: MS medium, 6 weeks
Experimental: In the auxin type and concentration experiment, four auxins: 2,4-D, NAA, IBA and dicamba were tested, each at four concentrations: 2, 5, 10 and 20 μM, for their ability to induce callus formation from L. minor strains 8744 and 8627. The basal medium used was MS and media and experimental protocol was basically that followed in Example 10. Fronds used in this experiment were grown for 2 weeks prior to plating on callus induction medium under 3 different culture conditions: 1) SH medium without plant growth regulators, 2) F medium with 24 μM 2,4-D and 2 μM 2-iP, and 3) SH medium with 24 μM 2,4-D and 2 μM 2-iP. Fronds were separated, the roots cut off and then plated on induction medium. The fronds were incubated under conditions given in Example 8 for 6 weeks at which time cultures were evaluated for the presence or absence of callus induction, the degree to which the callus proliferated, and the basic morphology of the callus present.
In the cytokinin type and concentration experiment, four cytokinins: BA, kinetin, 2-iP, and thidiazuron were tested, each at five concentrations: 0.05, 0.1, 0.5, 1 and 5 μM, for their ability to induce callus formation from L. minor strains 8744 and 8627. The basal medium used was MS and the media and experimental protocol were basically as described in Example 11. Fronds used in this experiment were grown for 2 weeks prior to plating on callus induction medium under 3 different culture conditions: 1) SH medium without plant growth regulators, 2) F medium with 24 μM 2,4-D and 2 μM 2-iP, and 3) SH medium with 24 μM 2,4-D and 2 μM 2-iP. Fronds were separated, the roots cut off and then plated on induction medium. The fronds were incubated under conditions given in Example 8 for 6 weeks at which time cultures were evaluated for the presence or absence of callus induction, the degree to which the callus proliferated, and the basic morphology of the callus.

[4] = test system: L. minor callus cultures, strain 8744 and strain 8627; test: Frond regeneration from L. minor callus cultures; format: cell-based, Lemna minor; settings: 8 weeks
Experimental: The effect of medium composition on frond regeneration from L. minor callus cultures was also tested. Seven media formulations were tested: (1) water agar, (2) water agar with 100 μM adenine sulfate, (3) water agar with 10 μM BA, (4) water agar with 10 μM BA and 1 μM IBA, (5) half-strength SH, (6) half-strength SH with 10 μM BA, and (7) half-strength SH with 10 μM BA and 1 μM IBA. […] Callus was incubated on the seven different media for 8 weeks, with continual observation for the development of fronds.

[5] = half-strength SH with 10 μM BA only

## O=C(O)Cc1c[nH]c2ccccc12 [IAA, indoleacetic acid]
Lemna gibba G3 [1]; fronds grown on 10 μM indoleacetic acid prior to inoculation, 4 days co-cultivation
  effect on frequency of GUS expression after co-cultivation: increased the frequency of GUS expression
Lemna gibba G3 [1]; fronds grown on SH medium with indoleacetic acid, averaged over PDA and MGL bacterial media
  frequency of GUS expression in meristematic tissue: approximately 17%
Lemna gibba G3 [1]; medium containing 10 μM IAA, 4 days co-cultivation (20% without IAA)
  co-cultivated fronds showing GUS expression: 48%

## O=C(Nc1ccccc1)Nc1cnns1 [TDZ, thidiazuron]
Lemna gibba G3 [2]; cytokinin 0-5 μM with 20 μM 2,4-D, MS medium, five weeks
  frequency of callus induction: greatest frequency of callus induction

## c1ccc(CNc2ncnc3nc[nH]c23)cc1 [BA, benzyladenine]
[3]; inducing auxin at 2, 5, 10, 20 μM, strains 8744 and 8627
  callus induction: not observed
[4]; [5]
  callus growth compared with half-strength SH without plant growth regulators: callus growth was faster
  time to frond regeneration compared with half-strength SH: regeneration took longer

## COc1c(Cl)ccc(Cl)c1C(=O)O [dicamba]
Lemna gibba G3 [2]; auxin with 1 μM BA, five weeks
  compact Type I callus induction on MS medium: some degree of callus induction
  compact Type I callus induction on N6 medium: produced callus
Lemna gibba G3 [2]; dicamba 10-100 μM with BA 0.01-1.0 μM, Murashige and Skoog medium, 73 days
  callus proliferation: callus proliferation was poor
Lemna gibba G3 [2]; dicamba with BA 0.01-1.0 μM, Murashige and Skoog medium, 73 days
  concentration above which callus proliferation did not occur: above 30 μM
[3]; strain 8744, auxin experiment
  concentration at which callus induction was observed: 20 µM

## O=C(O)Cc1cccc2ccccc12 [NAA, naphthaleneacetic acid]
Lemna gibba G3 [2]; MS medium, 1 μM BA, five weeks
  concentration giving the greatest callus induction: 10 µM

## O=C(O)CCCc1c[nH]c2ccccc12 [IBA, indolebutyric acid]
[4]; 1 μM IBA added to medium with 10 μM BA
  effect on the timing or ability of callus to regenerate fronds: had no effect

## OC[C@@H](O)[C@@H](O)[C@H](O)[C@H](O)CO [mannitol]
Lemna gibba G3 [1]; 0, 0.2, 0.4, 0.6, 0.8 M tested, regardless of media, 4 days co-cultivation in the dark
  concentration in bacterial resuspension solution giving the highest frequencies of GUS expression: 0.6 M
